This note sets out measurements from patent US20050202511A1, “AMP-activated protein kinase (AMPK) inhibitor screening assay” (priority 2002, published 2005).

“And” between values parts separate entries of the source, which are not always exact repeats. Identical values can stand only once.

Holding throughout (assay): Filter binding assay, GST-CBS domain fusion
One experiment has as its target T1, AMPK-γ2 CBS1-2 (R302Q) (Homo sapiens, UniProt Q9UGJ0, R302Q).
T1 construct: the N-terminal pair (CBS1-2, residues 274-410); made in house; host or cells: E. coli BL21 (DE3)
The conditions noted are these: for Kd: single-site model. From the text:
Site-directed mutagenesis was used to create the point mutation in CBS1 that causes hereditary heart disease (R302Q).
(§1) The present inventors also used site-directed mutagenesis to create four of the mutations in CBS1-2 that cause WPWS, i.e. R302Q, H383R and T400N, and Lins (which inserts a leucine residue in the linker between CBS1 and CBS2).
(§2) Various concentrations of [^14C]-AMP, [γ^32P] […] Reactions were stopped by spotting 10 ìl onto a Millipore MF Filter Membrane disc and rapidly washing under high vacuum with 1 ml of ice-cold TBS. Radioactivity was determined on the filters by scintillation counting. Non-specific binding (which was trivial) was determined by performing the assay with GST as a control, and was subtracted. […] Data were fitted to the binding models given in the text, using GraphPad Prism 3. Estimates of parameters resulting from fits are quoted in the text and Table 1±standard error, and the curves shown in figures are theoretical curves obtained using those estimates.

The target in a further experiment is T2, AMPK-γ2 CBS1-2 (H383R) (Homo sapiens, UniProt Q9UGJ0, H383R).
T2 construct: the N-terminal pair (CBS1-2, residues 274-410); made in house; host or cells: E. coli BL21 (DE3)
Conditions: for Kd: single-site model. How it is done:
as §1, §2

Another experiment has as its target T3, AMPK-γ2 CBS1-2 (Lins) (Homo sapiens, UniProt Q9UGJ0, INS350L).
T3 construct: fused on or other part: GST at the N-terminus followed by a hexaglycine spacer (pGEX-KG)
The conditions noted are these: single-site model. How it is done: as §1, §2

Another experiment deals with T4, AMPK-γ2 CBS1-2 (T400N) (Homo sapiens, UniProt Q9UGJ0, T400N).
T4 construct: the N-terminal pair (CBS1-2, residues 274-410); made in house; host or cells: E. coli BL21 (DE3)
Conditions: for Kd: single-site model. The protocol: as §1, §2

Another experiment deals with T5, AMPK-γ2 CBS3-4 (WT) (Homo sapiens, UniProt Q9UGJ0).
T5 construct: the C-terminal pair (CBS3-4, residues 430-556); made in house; host or cells: E. coli BL21 (DE3)
The conditions noted are these: single-site model. From the text: The boundaries of the CBS domains were taken from the alignments by Bateman. Using a plasmid encoding human γ2 as the template, PCR was used to produce DNAs encoding all four CBS domains (CBS1-4, residues 274-569), the N-terminal pair (CBS1-2, residues 274-410) or the C-terminal pair (CBS3-4, residues 430-556). The PCR primers had been designed to create BamHI and XhoI sites at the ends, and these were used to insert them into a vector that created a fusion protein with glutathione-S-transferase at the N-terminal end followed by a hexaglycine spacer, with the CBS domains at the C-terminus. All three constructs were expressed in E. coli and could be purified on glutathione-Sepharose as soluble proteins of the expected sizes in good yield (CBS1-4, 61 kDa, 5 mg/L of culture; CBS1-2, 43 kDa, 2 mg/L; CBS3-4, 43 kDa, 2 mg/L).
(§3) Site-directed mutagenesis was also used to create a point mutation in CBS4 that causes hereditary heart disease (WPWS) (R531G).
Various concentrations of [^14C]-AMP, [γ^32P] […] Reactions were stopped by spotting 10 ìl onto a Millipore MF Filter Membrane disc and rapidly washing under high vacuum with 1 ml of ice-cold TBS. Radioactivity was determined on the filters by scintillation counting. Non-specific binding (which was trivial) was determined by performing the assay with GST as a control, and was subtracted. […]

For another experiment, the target named is T6, AMPK-γ2 CBS3-4 (R531G) (Homo sapiens, UniProt Q9UGJ0, R531G).
T6 construct: the C-terminal pair (CBS3-4, residues 430-556); made in house; host or cells: E. coli BL21 (DE3)
Conditions: for Kd: single-site model. The protocol:
as §3, §2

The target in the next experiment is T7, AMPK-γ1 CBS1-4 (UniProt P80385).
T7 construct: B0.5; other: two site Hill plot model; h (Hill coefficient); fused on or other part: GST at the N-terminus (pGEX-KG, glycine spacer)
On the set-up: species or system rat. The conditions noted are these: for Kd: two site Hill plot model, read-out: B0.5. The protocol: The construct was expressed in E. coli and could be purified on glutathione-Sepharose as a soluble protein of the expected size (62 kDa) in good yield (3 mg/L of culture).
DNA encoding the CBS1-4 domains of the γ1 isoform was produced using PCR with a rat y1-encoding pcDNA3 plasmid as template. The primers used were: 5′-CGCGGATCCGCGATGGAGACGGTCATTTCTTCA-3′ (sense), 5′-CCGCTCGAGCGGGGGCTTCTTCTCTCCACCTGT-3′ (antisense). The PCR products was sub-cloned into pGEX-KG as above.
as §2

Another experiment has as its target T8, AMPK-γ3 CBS1-4 (Homo sapiens, UniProt Q9UGI9).
T8 construct: Human γ3 (residues 197-479) was also used as a template for PCR; made in house; host or cells: E. coli BL21 (DE3)
T8 sequence (Q9UGI9 197-479): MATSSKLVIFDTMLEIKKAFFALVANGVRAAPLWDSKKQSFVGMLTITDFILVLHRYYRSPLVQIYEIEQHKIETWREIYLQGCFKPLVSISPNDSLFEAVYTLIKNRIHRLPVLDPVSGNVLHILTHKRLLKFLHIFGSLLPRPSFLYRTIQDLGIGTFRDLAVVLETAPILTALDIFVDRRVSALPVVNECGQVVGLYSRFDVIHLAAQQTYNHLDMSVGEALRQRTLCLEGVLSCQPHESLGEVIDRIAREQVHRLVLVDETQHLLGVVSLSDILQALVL
The conditions noted are these: for Kd: two site Hill plot model, read-out: B0.5.
From the text: DNA fragments were produced encoding all four (CBS1-4), or the first two (CBS1-2), or the last two (CBS3-4) of the tandem CBS domains from the human AMPK γ2 subunit. DNAs were produced by the polymerase chain reaction (PCR) using the Stratagene Pfu Turbo PCR kit and a human γ2-encoding pcDNA3 plasmid as template. The following oligonucleotides were used as primers: (CBS1-4), 5′-CGCGGATCCGCGGTTCCAACCAGTTCAAAGCTTGTT-3′ (sense), 5′-CCGCTCGAGCGGCTCCGTTTCTGTCTCCTTTTGTTT-3′ (antisense); CBS1-2 (sense strand as CBS1-4), 5′-CCGCTCGAGCGGAAGCTGGAGGAACTTGAGGATTCT-3′ (antisense); CBS3-4: 5′-CGCGGATCCGCGATAGGAACGTACCACAACATTGCC-3′ (sense), 5′-CCGCTCGAGCGGGAGGATCAGGGCTTGCAGAATGTC-3′ (antisense). Human γ3 (residues 197-479) was also used as a template for PCR (14). The PCR products were subcloned into pGEX-KG as 5′-BamHI and 3′-XhoI restriction fragments for expression as glutathione-S-Transferase (GST) fusions in E. coli.
as §2

T6 sequence (Q9UGJ0 430-556 R531G): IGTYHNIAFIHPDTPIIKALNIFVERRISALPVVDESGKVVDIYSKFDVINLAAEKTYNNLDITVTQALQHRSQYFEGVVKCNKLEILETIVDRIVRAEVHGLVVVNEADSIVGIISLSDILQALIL
T4 sequence (Q9UGJ0 274-410 T400N): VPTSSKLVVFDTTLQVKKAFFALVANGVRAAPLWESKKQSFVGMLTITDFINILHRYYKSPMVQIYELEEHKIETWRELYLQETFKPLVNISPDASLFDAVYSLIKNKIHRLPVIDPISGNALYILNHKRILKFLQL
T1 sequence (Q9UGJ0 274-410 R302Q): as the sequence (Q9UGJ0 274-410 T400N) above, with R29Q, N127T counted along it
T2 sequence (Q9UGJ0 274-410 H383R): as the sequence (Q9UGJ0 274-410 T400N) above, with H110R, N127T counted along it
T3 sequence (Q9UGJ0 with tags, fused parts or gaps INS350L): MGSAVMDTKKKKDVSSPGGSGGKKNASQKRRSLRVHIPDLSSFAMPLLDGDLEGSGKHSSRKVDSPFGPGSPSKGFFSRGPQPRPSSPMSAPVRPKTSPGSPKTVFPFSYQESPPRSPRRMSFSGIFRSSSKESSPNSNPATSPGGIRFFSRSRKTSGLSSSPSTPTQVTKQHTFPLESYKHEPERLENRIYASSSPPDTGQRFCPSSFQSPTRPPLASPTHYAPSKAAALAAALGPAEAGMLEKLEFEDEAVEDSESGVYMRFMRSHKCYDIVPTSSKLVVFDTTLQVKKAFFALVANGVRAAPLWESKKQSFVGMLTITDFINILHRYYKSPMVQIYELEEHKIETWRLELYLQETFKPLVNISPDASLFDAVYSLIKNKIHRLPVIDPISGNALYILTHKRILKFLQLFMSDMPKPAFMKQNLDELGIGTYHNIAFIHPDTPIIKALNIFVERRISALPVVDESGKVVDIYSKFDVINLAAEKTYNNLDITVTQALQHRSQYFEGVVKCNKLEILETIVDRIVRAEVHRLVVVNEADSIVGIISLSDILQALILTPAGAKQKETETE
T5 sequence (Q9UGJ0 430-556): as the sequence (Q9UGJ0 430-556 R531G) above, with G102R counted along it

Consider `Nc1ncnc2c1ncn2[C@@H]1O[C@H](COP(=O)(O)O)[C@@H](O)[C@H]1O` [AMP, adenosine monophosphate], for which the “increase in Kd relative to wild type” value on AMPK-γ2 CBS1-2 (R302Q) is 5.7 fold and 6 fold; at AMPK-γ2 CBS1-2 (H383R), 28 fold; on AMPK-γ2 CBS1-2 (T400N), 10 fold; at AMPK-γ2 CBS3-4 (R531G) it was 15 fold. The Kd on AMPK-γ2 CBS1-2 (R302Q) amounted to 303 ± 42 µM; at AMPK-γ2 CBS1-2 (H383R), 1500 ± 210 µM; on AMPK-γ2 CBS1-2 (Lins), 63 ± 7 µM; at AMPK-γ2 CBS1-2 (T400N) it was 556 ± 56 µM; on AMPK-γ2 CBS3-4 (WT), 104 ± 10 µM; at AMPK-γ2 CBS3-4 (R531G), 1570 ± 110 µM. Moreover, the Kd at AMPK-γ1 CBS1-4 was 20 ± 1 µM; on AMPK-γ3 CBS1-4, 125 µM. Also, the “h (Hill coefficient)” value at AMPK-γ1 CBS1-4 was 1.6±0.1 and 1.6 ± 0.2; at AMPK-γ3 CBS1-4, 2.2 ± 0.1.
Take `Nc1ncnc2c1ncn2[C@@H]1O[C@H](COP(=O)(O)OP(=O)(O)OP(=O)(O)O)[C@@H](O)[C@H]1O` [ATP]: the Kd came out at 468 ± 86 µM at AMPK-γ2 CBS1-2 (R302Q); 1570 ± 140 µM on AMPK-γ2 CBS1-2 (H383R); 202 ± 22 µM at AMPK-γ2 CBS1-2 (Lins); 952 ± 55 µM at AMPK-γ2 CBS1-2 (T400N); 403 ± 16 µM at AMPK-γ2 CBS3-4 (WT); 2050 ± 150 µM on AMPK-γ2 CBS3-4 (R531G). For the same compound, the values for the Kd at AMPK-γ1 CBS1-4 and at AMPK-γ3 CBS1-4 were 119 ± 7 µM and 989 ± 58 µM, respectively. Moreover, the entries for the “h (Hill coefficient)” value at AMPK-γ1 CBS1-4 and at AMPK-γ3 CBS1-4 were 1.9 ± 0.2 and 1.5 ± 0.1, respectively.
